Measurements as given in ChEMBL document CHEMBL3272121, “Hypolipidemic analogues of ethyl 4-benzyloxybenzoate” (J Med Chem, 1977).
Counter-ions that a name gives are not always drawn.

Columns and labels:
Rattus norvegicus [1] = test: Toxicity in CFY Sprague-Dawley rat assessed as relative liver weight at 1% dietary level administered for 7 days relative to control; type: organism-based; conditions: in vivo, po, 168 h
Rattus norvegicus [2] = test: Toxicity in CFY Sprague-Dawley rat assessed as body weight gain at 0.25% dietary level administered for 7 days relative to control; type: organism-based; conditions: in vivo, po, 168 h
Rattus norvegicus [3] = test: Hypolipidemic activity in CFY Sprague-Dawley rat assessed as liver lipid per gm of liver at 1% dietary level administered for 7 days relative to control; type: functional
Rattus norvegicus [4] = test: Hypolipidemic activity in CFY Sprague-Dawley rat assessed as serum cholesterol level at 1% dietary level administered for 7 days relative to control; type: functional
Liver [5] = test: Inhibition of cholesterol biosynthesis from [1-14C]acetate in rat liver slices at […] relative to control; type: functional
Rattus norvegicus [6] = test: Hypolipidemic activity in CFY Sprague-Dawley rat assessed as liver lipid per gm of liver at 0.2% dietary level administered for 7 days relative to control; type: functional
Rattus norvegicus [7] = test: Toxicity in CFY Sprague-Dawley rat assessed as relative liver weight at 0.2% dietary level administered for 7 days relative to control; type: organism-based; conditions: in vivo, po, 168 h
Rattus norvegicus [8] = test: Hypolipidemic activity in CFY Sprague-Dawley rat assessed as serum cholesterol level at 0.25% dietary level administered for 7 days relative to control; type: functional
Rattus norvegicus [9] = test: Hypolipidemic activity in CFY Sprague-Dawley rat assessed as serum triglyceride level at 1% dietary level administered for 7 days relative to control; type: functional
Rattus norvegicus [10] = test: Toxicity in CFY Sprague-Dawley rat assessed as body weight gain at 0.2% dietary level administered for 7 days relative to control; type: organism-based; conditions: in vivo, po, 168 h
Rattus norvegicus [11] = test: Toxicity in CFY Sprague-Dawley rat assessed as body weight gain at 1% dietary level administered for 7 days relative to control; type: organism-based; conditions: in vivo, po, 168 h
Rattus norvegicus [12] = test: Hypolipidemic activity in CFY Sprague-Dawley rat assessed as liver lipid per gm of liver at 0.25% dietary level administered for 7 days relative to control; type: functional
Liver [13] = test: Inhibition of fatty acid biosynthesis from [1-14C]acetate in rat liver slices at 5 X 10^-4 M relative to control; type: functional
Rattus norvegicus [14] = test: Hypolipidemic activity in CFY Sprague-Dawley rat assessed as serum cholesterol level at 0.2% dietary level administered for 7 days relative to control; type: functional
Rattus norvegicus [15] = test: Hypolipidemic activity in CFY Sprague-Dawley rat assessed as serum triglyceride level at 0.25% dietary level administered for 7 days relative to control; type: functional
Rattus norvegicus [16] = test: Toxicity in CFY Sprague-Dawley rat assessed as relative liver weight at 0.25% dietary level administered for 7 days relative to control; type: organism-based; conditions: in vivo, po, 168 h
Rattus norvegicus [17] = test: Hypolipidemic activity in CFY Sprague-Dawley rat assessed as serum triglyceride level at 0.2% dietary level administered for 7 days relative to control; type: functional
Liver [18] = test: Inhibition of fatty acid biosynthesis from [1-14C]acetate in rat liver slices at 1 X 10^-4 M relative to control; type: functional
Liver [19] = test: Inhibition of cholesterol biosynthesis from [1-14C]acetate in rat liver slices at 1 X 10^-4 M relative to control; type: functional

Compound | Activity (Rattus norvegicus [1]) [%] | Activity (Rattus norvegicus [2]) [%] | Activity (Rattus norvegicus [3]) [%] | Activity (Rattus norvegicus [4]) [%] | inhibition at 500 µM (Liver [5]) [%] | Activity (Rattus norvegicus [6]) [%] | Activity (Rattus norvegicus [7]) [%] | Activity (Rattus norvegicus [8]) [%] | Activity (Rattus norvegicus [9]) [%] | Activity (Rattus norvegicus [10]) [%] | Activity (Rattus norvegicus [11]) [%] | Activity (Rattus norvegicus [12]) [%] | inhibition at 500 µM (Liver [13]) [%] | Activity (Rattus norvegicus [14]) [%] | Activity (Rattus norvegicus [15]) [%] | Activity (Rattus norvegicus [16]) [%] | Activity (Rattus norvegicus [17]) [%] | inhibition at 100 µM (Liver [18]) [%] | inhibition at 100 µM (Liver [19]) [%]
CCOC(=O)c1ccc(OCc2ccc(Br)cc2)cc1 | 20 | 1 | 4 | -24 | 98 | -2 | 8 | -29 | -39 | 17 | -8 | 0 | 84 | -23 | -52 | 10 | -62 |  | 
CCOC(=O)Cc1ccc(OCc2ccccc2OC)cc1 | 19 | 6 | 20 | -21 |  | 5 | 8 | -24 | -53 | 6 | -16 | 7 |  | -22 | -57 | 4 | -64 | 48 | 57
Cc1ccc(OCc2ccccc2)cc1 |  | -7 |  |  | 67 |  |  | -19 |  |  |  |  | 43 |  | -19 | 29 |  |  | 
COC(=O)c1ccc(OCc2ccccc2)cc1 |  | -14 |  |  |  |  |  | -19 |  |  |  | 4 |  |  | -51 | 15 |  |  | 
CCOC(=O)c1ccc(OCc2cccc(C(F)(F)F)c2)cc1 |  | 12 |  |  | 99 |  |  | -11 |  |  |  |  | 92 |  | 8 | 9 |  |  | 
CCCCCCCCCc1ccc(OCc2ccccc2)cc1 |  | -41 |  |  | 67 |  |  | -12 |  |  |  |  | 60 |  | -67 | -5 |  |  | 
CC(C)OC(=O)c1ccc(OCc2ccccc2)cc1 |  | -4 |  |  |  |  |  | -10 |  |  |  | -5 |  |  | -40 | 13 |  |  | 
CCOC(=O)Cc1ccc(OCc2ccc(F)cc2)cc1 |  | 3 |  |  |  |  |  | -29 |  |  |  | 11 |  |  | -71 | 19 |  |  | 
CCOC(=O)Cc1ccc(OCc2ccc(Cl)cc2)cc1 |  | -10 |  |  | 68 |  |  | -28 |  |  |  | 8 | 59 |  | -91 | 14 |  |  | 
CCCc1ccc(OCc2ccccc2)c(OC)c1 |  | 0 |  |  | 34 |  |  | 15 |  |  |  | 4 | 3 |  | 12 | 17 |  |  | 
Cc1ccc(COc2ccc(C#N)cc2)cc1 |  | -29 |  |  |  |  |  | -19 |  |  |  | 14 |  |  | -58 | 27 |  |  | 
COC(=O)CCc1ccc(OCc2ccccc2)cc1 |  | -3 |  |  |  |  |  | -16 |  |  |  | 3 |  |  | -45 | 18 |  |  | 
CCOC(=O)c1ccc(OCc2cccc([N+](=O)[O-])c2)cc1 |  | -29 |  |  | 54 |  |  | -7 |  |  |  |  | 47 |  | -28 | -4 |  |  | 
CCOC(=O)c1ccc(COc2ccccc2)cc1 |  | 8 |  |  |  |  |  | -25 |  |  |  | 3 |  |  | -38 | 26 |  |  | 
CCOC(=O)c1ccc(OCc2cc(C)ccc2C)cc1 |  | -21 |  |  | 93 |  |  | -12 |  |  |  |  | 55 |  | -49 | -9 |  |  | 
CCOC(=O)c1ccc(OCc2cccc(C)c2)cc1 |  | -10 |  |  | 97 |  |  | -18 |  |  |  |  | 82 |  | -54 | -2 |  |  | 
O=C([O-])c1ccc(OCc2ccccc2)cc1.[Na+] |  | -13 |  |  |  |  |  | -15 |  |  |  | 12 |  |  | -38 | 2 |  |  | 

Compound | Activity (Rattus norvegicus [1]) [%] | Activity (Rattus norvegicus [2]) [%] | Activity (Rattus norvegicus [3]) [%] | Activity (Rattus norvegicus [4]) [%] | inhibition at 500 µM (Liver [5]) [%] | Activity (Rattus norvegicus [6]) [%] | Activity (Rattus norvegicus [7]) [%] | Activity (Rattus norvegicus [8]) [%] | Activity (Rattus norvegicus [9]) [%] | Activity (Rattus norvegicus [10]) [%] | Activity (Rattus norvegicus [11]) [%] | Activity (Rattus norvegicus [12]) [%] | inhibition at 500 µM (Liver [13]) [%] | Activity (Rattus norvegicus [14]) [%] | Activity (Rattus norvegicus [15]) [%] | Activity (Rattus norvegicus [16]) [%] | Activity (Rattus norvegicus [17]) [%] | inhibition at 100 µM (Liver [18]) [%] | inhibition at 100 µM (Liver [19]) [%]
CCOC(=O)Cc1cccc(OCc2ccccc2OC)c1 |  | 17 |  |  |  |  |  | -16 |  |  |  | 9 |  |  | -13 | 34 |  |  | 
CCCC(C(=O)OCCN(CC)CC)(c1ccccc1)c1ccccc1 [PROADIFEN HYDROCHLORIDE] |  |  |  |  | 86 |  |  |  |  |  |  |  | 62 |  |  |  |  |  | 
CCOC(=O)c1ccc(OCc2ccc(F)cc2)cc1 |  | 9 |  |  | 86 |  |  | -31 |  |  |  | 1 | 12 |  | -48 | 8 |  |  | 
CCOC(=O)c1ccc(OCc2ccc(I)cc2)cc1 |  | 7 |  |  |  |  |  | -18 |  |  |  | 3 |  |  | -60 | 11 |  |  | 
CCOC(=O)c1ccc(OCc2ccc(C)cc2)cc1 | 19 | -4 | 3 | -13 | 47 | -7 | 2 | -18 | -46 | 14 | -19 | 1 | 47 | -17 | -54 | 4 | -42 |  | 
CCOC(=O)Cc1ccc(OCc2ccccc2)cc1 |  | -23 |  |  | 93 |  |  | -18 |  |  |  | 65 | 100 |  | -84 | 28 |  |  | 
CCOC(=O)CCCCCc1ccc(OCc2ccccc2)cc1 |  | -7 |  |  |  |  |  | -38 |  |  |  | 32 |  |  | -83 | 21 |  |  | 
CCOCCOC(=O)c1ccc(OCc2ccccc2)cc1 |  | 10 |  |  |  |  |  | -17 |  |  |  | 0 |  |  | -51 | 10 |  |  | 
O=C(O)c1ccc(OCc2ccccc2)cc1 | 50 | -5 | 1 | -24 | 92 | 8 | 0 | -23 | -34 | -13 | -62 | -4 | 65 | -14 | -65 | 10 | -50 |  | 
CCOC(=O)c1ccc(OCc2cccc(F)c2)cc1 |  | -1 |  |  |  |  |  | -19 |  |  |  | 1 |  |  | -60 | -4 |  |  | 
CCOC(=O)C(C)(C)Oc1ccc(Cl)cc1 [CLOFIBRATE] |  | 0 |  |  |  |  |  | -23 |  |  |  | 3 |  |  | -31 | 32 |  |  | 
CCc1ccc(OCc2ccccc2)cc1 |  | -3 |  |  |  |  |  | -17 |  |  |  | -6 |  |  | -57 | 20 |  |  | 
CCOC(=O)c1ccc(OCc2ccc(C)c(C)c2)cc1 |  | -7 |  |  | 97 |  |  | -19 |  |  |  | 13 | 94 |  | -47 | 10 |  |  | 
COC(=O)Cc1ccc(OCc2ccccc2)c(OC)c1 |  | -68 |  |  |  |  |  | -30 |  |  |  | 8 |  |  | -45 | 0 |  |  | 
CCOC(=O)c1ccc(OCc2ccccc2[N+](=O)[O-])cc1 |  | 8 |  |  | 82 |  |  | -20 |  |  |  | 3 | 69 |  | -21 | 12 |  |  | 
CCOC(=O)c1ccc(OCc2ccc(Cl)cc2)cc1 |  | -7 |  |  |  |  |  | -12 |  |  |  | 10 |  |  | -53 | 6 |  |  | 
